In US20100111965A1, “COMBINATION THERAPY” (FUSION ANTIBODIES LIMITED, priority 2006, published 2010):

Tests used:
[1] = tested on: H630 p53 mutant colorectal cancer cell; assay: Western blot of AREG protein in H630 p53 mutant lysates after chemotherapy; type: cell-based, human; conditions: 48 hour treatment, two separate experiments
Method: FIG. 4 illustrates analysis of AREG protein 14, expression in H630 p53 mutant colorectal cancer cell lysates following a 48 hour CPT11 treatment. Western blots were probed using an anti-amphiregulin antibody. […] HCT 116, RKO, HT 29 and H630 are human colorectal carcinoma cell lines. After different time exposure to chemotherapy the cells were harvested, and washed in 1×PBS. The cell pellet was then lysed in a suitable amount of 1×RIPA lysis buffer (150 mM NaCl, 10 mM Tris at pH 7.2, 0.1% SDS, 1.0% triton X-100 and 5 mM.EDTA) supplemented with protease inhibitors. The cell lysate was briefly vortexed, incubated on ice for 10 min and then centrifuged at 12,000 rpm to remove cell debris. Following centrifugation, the lysate supernatant was removed to a fresh eppendorf tube. Protein concentrations were assayed using the BCA Protein Assay (Pierce) according to the manufacturer's instructions. The absorbance of each sample at 620 nm was assayed using a microplate reader. A standard BSA curve was plotted for each experiment and the protein concentration of each sample calculated. To each sample an equal volume of 5× Western sample buffer and 10% of the final volume of β-mercaptoethanol (Sigma) was added. […] Protein bands were detected by exposure to autoradiograph which was subsequently developed. […]

HCT116 cells = assay: MTT assay, HCT116 cell proliferation; type: cell-based, human; conditions: siRNA 10 nM, CPT-11 3.5 μM, 48 hr, compared to untreated, mock, control siRNA
Method: FIG. 8 illustrates HCT116 cell proliferation following AREG/HB-EGF silencing by siRNA and/or Chemotherapy treatment. Cells were transfected with AREG siRNA (10 nM), HB-EGF siRNA (10 nM) or a control siRNA (10 nM). […] Cell proliferation was analysed by MTT assay 48 hr after transfection/chemotherapy
FIG. 28 illustrates HCT116 cell proliferation after treatment with AREG antibody. Cell proliferation was analysed by MTT assay 48 hr after treatment.
FIG. 30 illustrates HCT116 cell proliferation after treatment with AREG antibody. Cell proliferation was analysed by MTT assay 48 hr after treatment.
FIG. 31 illustrates HCT116 cell proliferation after treatment with AREG antibody. Cell proliferation was analysed by MTT assay 48 hr after treatment
FIG. 33 illustrates HCT116 cell proliferation following HB-EGF silencing by siRNA and/or treatment with Anti AREG antibodies (6E11 1E92D8 & 6E11 1E9 106). Cells were transfected with HB-EGF siRNA (50 nM) or a control siRNA (50 nM). Cell proliferation was analysed by MTT assay 72 hr after transfection. […]
Cell viability was assessed by 3-(4,5-dimethylthiazol-2-yl)-2,5-diphenyltetrazolium bromide (MTT, Sigma) assay (Mosmann, T. 1983. J. Immunol. Methods 65:55-63). […] Cell viability was determined by reading the absorbance of each well at 570 nm using a microplate reader (Tecan Sunrise, Biorad, UK).

CCc1c2c(nc3ccc(OC(=O)N4CCC(N5CCCCC5)CC4)cc13)-c1cc3c(c(=O)n1C2)COC(=O)[C@]3(O)CC [CPT-11, irinotecan]
AREG protein expression (western blot) [1]: Enhanced AREG expression
effect on cell viability (MTT) (HCT116 cells): no significant effect
